Data: PubChem BioAssay AID1259407 (Chemical Carcinogenesis Research Information System (CCRIS), 2018)
Calls of active or inactive are those of the source. The rule behind the calls is not given here.

System: CCRIS mutagenicity, Ames/micronucleus/aberration tests
Test: CCRIS mutagenicity studies

C[CH2][Ge]([Cl])([CH2]C)[CH2]C
mutagenic call (Test System: AMES SALMONELLA TYPHIMURIUM, Strain/Indicator: TA98, Metabolic Activation: HAMSTER, LIVER, S-9, AROCLOR 1254 (10%), Method: STANDARD PLATE): inactive; negative | mutagenic call (Test System: AMES SALMONELLA TYPHIMURIUM, Strain/Indicator: TA98, Metabolic Activation: NONE, Method: STANDARD PLATE): inactive; negative | mutagenic call (Test System: AMES SALMONELLA TYPHIMURIUM, Strain/Indicator: TA98, Metabolic Activation: RAT, LIVER, S-9, AROCLOR 1254 (10%), Method: STANDARD PLATE): inactive; negative | mutagenic call (Test System: AMES SALMONELLA TYPHIMURIUM, Strain/Indicator: TA100, Metabolic Activation: HAMSTER, LIVER, S-9, AROCLOR 1254 (10%), Method: STANDARD PLATE): inactive; negative | mutagenic call (Test System: AMES SALMONELLA TYPHIMURIUM, Strain/Indicator: TA100, Metabolic Activation: NONE, Method: STANDARD PLATE): inactive; negative | mutagenic call (Test System: AMES SALMONELLA TYPHIMURIUM, Strain/Indicator: TA100, Metabolic Activation: RAT, LIVER, S-9, AROCLOR 1254 (10%), Method: STANDARD PLATE): inactive; negative | mutagenic call (Test System: AMES SALMONELLA TYPHIMURIUM, Strain/Indicator: TA1535, Metabolic Activation: HAMSTER, LIVER, S-9, AROCLOR 1254 (10%), Method: STANDARD PLATE): inactive; negative | mutagenic call (Test System: AMES SALMONELLA TYPHIMURIUM, Strain/Indicator: TA1535, Metabolic Activation: NONE, Method: STANDARD PLATE): inactive; negative | mutagenic call (Test System: AMES SALMONELLA TYPHIMURIUM, Strain/Indicator: TA1535, Metabolic Activation: RAT, LIVER, S-9, AROCLOR 1254 (10%), Method: STANDARD PLATE): inactive; negative | mutagenic call (Test System: AMES SALMONELLA TYPHIMURIUM, Strain/Indicator: TA1537, Metabolic Activation: HAMSTER, LIVER, S-9, AROCLOR 1254 (10%), Method: STANDARD PLATE): inactive; negative | mutagenic call (Test System: AMES SALMONELLA TYPHIMURIUM, Strain/Indicator: TA1537, Metabolic Activation: NONE, Method: STANDARD PLATE): inactive; negative | mutagenic call (Test System: AMES SALMONELLA TYPHIMURIUM, Strain/Indicator: TA1537, Metabolic Activation: RAT, LIVER, S-9, AROCLOR 1254 (10%), Method: STANDARD PLATE): inactive; negative | mutagenic call (Test System: AMES SALMONELLA TYPHIMURIUM, Strain/Indicator: TA1538, Metabolic Activation: HAMSTER, LIVER, S-9, AROCLOR 1254 (10%), Method: STANDARD PLATE): inactive; negative | mutagenic call (Test System: AMES SALMONELLA TYPHIMURIUM, Strain/Indicator: TA1538, Metabolic Activation: NONE, Method: STANDARD PLATE): inactive; negative | mutagenic call (Test System: AMES SALMONELLA TYPHIMURIUM, Strain/Indicator: TA1538, Metabolic Activation: RAT, LIVER, S-9, AROCLOR 1254 (10%), Method: STANDARD PLATE): inactive; negative | mutagenic call (Test System: MOUSE LYMPHOMA, Strain/Indicator: L5178Y (TK+/TK-), Metabolic Activation: NONE, Method: SUSPENSION/PLATE): inactive; negative. reevaluation of results: inconclusive | mutagenic call (Test System: MOUSE LYMPHOMA, Strain/Indicator: L5178Y (TK+/TK-), Metabolic Activation: RAT, LIVER, S-9, AROCLOR 1254, Method: SUSPENSION/PLATE): inactive; negative. reevaluation of results: negative

O=c1c(-c2ccc(O)cc2)coc2cc(O)cc(O)c12
mutagenic call (End Point: IN VITRO CHROMOSOMAL ABERRATIONS, Test System: HUMAN PERIPHERAL LYMPHOCYTES, Metabolic Activation: NONE): active; positive (structural changes) | mutagenic call (End Point: IN VITRO MICRONUCLEUS, Test System: CHINESE HAMSTER V79 CELLS, Metabolic Activation: NONE): active; positive | mutagenic call (End Point: IN VITRO MICRONUCLEUS, Test System: MOUSE LYMPHOMA L5178Y CELLS, Metabolic Activation: NONE): active; positive | mutagenic call (End Point: IN VIVO CHROMOSOMAL ABERRATIONS, Test System: MAMMARY GLAND CELLS, USING DUAL PROBE FISH, Species: RAT, Strain/Sex: SPRAGUE-DAWLEY/FEMALE, Route: DIET): inactive; negative | mutagenic call (End Point: IN VIVO MICRONUCLEUS, Test System: MAMMARY GLAND CELLS, Species: RAT, Strain/Sex: SPRAGUE-DAWLEY/FEMALE, Route: DIET): inactive; negative | mutagenic call (End Point: MORPHOLOGICAL TRANSFORMATION, Test System: SYRIAN HAMSTER EMBRYO CELLS (SHE), Metabolic Activation: NONE): inactive; negative | mutagenic call (Test System: CHINESE HAMSTER V-79, Strain/Indicator: V-79 (HPRT)/6-THIOGUANINE, Metabolic Activation: NONE): active; positive | mutagenic call (Test System: MOUSE LYMPHOMA, Strain/Indicator: L5178Y TK+/-, Metabolic Activation: NONE): active; positive (above 90 umol/l) | mutagenic call (Test System: MOUSE LYMPHOMA, Strain/Indicator: L5178Y TK+/-, Metabolic Activation: S-9): active; positive | mutagenic call (Test System: SYRIAN HAMSTER EMBRYO CELLS, Strain/Indicator: HPRT/6-THIOGUANINE, Metabolic Activation: NONE, Method: PLATE): active; positive
